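Exposure lasted 48 hours, with cells grown in 96-well plates and compounds tested at five concentrations. GI50 marks 50% less growth.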 Active and inactive are the calls of the source. Rule as the data show it: active = GI50 up to about 1.1 µM and inactive = higher.
Legend:
Test in all cases: NCI tumour cell line growth inhibition, 48 h
[1] = tested on: MDA-MB-435
[2] = tested on: DU-145
[3] = tested on: MDA-MB-231
[4] = tested on: UACC-62
[5] = tested on: HL-60
[6] = tested on: Hs-578T
[7] = tested on: Malme-3M
[8] = tested on: SF-539
[9] = tested on: SK-MEL-2
[10] = tested on: ACHN
[11] = tested on: NCI-H522
[12] = tested on: COLO 205
[13] = tested on: CAKI-1
[14] = tested on: RPMI-8226
[15] = tested on: SN12C
[16] = tested on: NCI-H460
[17] = tested on: CCRF-CEM
[18] = tested on: A549
[19] = tested on: HCT-15
[20] = tested on: KM12

In the case of `CC(C)(C)c1cc(C(=O)/C=C/c2ccc(O)c(O)c2O)cc(C(C)(C)C)c1O`, the GI50 [1] is reported as 6.89 µM (inactive), the GI50 [2] is reported as 10.5 µM (inactive) and the GI50 [3] is reported as 12 µM (inactive). For the same compound, the GI50 [4] was 4.54 µM (inactive), the GI50 [5] was 1.77 µM (inactive) and the GI50 [6] was 3.99 µM (inactive). For the same compound, the GI50 [7] was 11.5 µM (inactive), the GI50 [8] was 2.92 µM (inactive) and the GI50 [9] was 4.41 µM (inactive). The GI50 [10] was 5.69 µM (inactive), the GI50 [11] was 1.08 µM (active) and the GI50 [12] was 11.8 µM (inactive). The GI50 [13] was 3.21 µM (inactive), the GI50 [14] was 1.59 µM (inactive) and the GI50 [15] was 2.8 µM (inactive). For the same compound, the GI50 [16] was 1.78 µM (inactive), the GI50 [17] was 1.73 µM (inactive) and the GI50 [18] was 5.06 µM (inactive). For the same compound, the GI50 [19] was 0.991 µM and the GI50 [20] was 2.58 µM (inactive).

— ChEMBL document CHEMBL1201862, “PubChem BioAssay data set” (2004)
